Test [1] relates to Dictyostelium discoideum. Put plainly: Compound was evaluated for nucleoside diphosphate kinase (NDP-kinase) activity.
In test [2] the test system is Dictyostelium discoideum. Put plainly: Compound was evaluated for nucleoside diphosphate kinase (NDP-kinase) activity relative to Adenosine triphosphate (100). Also noted: concentration or dose not given beside the values.

Consider `Nc1ncnc2c1ncn2[C@@H]1O[C@H](COP(=O)(O)OP(=O)(O)OP(=O)(O)O)[C@@H](O)[C@H]1O`, for which the Relative activity in the test with Dictyostelium discoideum [1] was determined as 100%.
For the compound `O=P(O)(O)OP(=O)(O)OP(=O)(O)OC[C@H]1O[C@@H](n2cnc3cncnc32)[C@H](O)[C@@H]1O`, the Relative activity in the test on Dictyostelium discoideum [2] stood at 130%.
On the same count and under the same terms, to `Nc1ncnc2c1ccn2[C@@H]1O[C@H](COP(=O)(O)OP(=O)(O)OP(=O)(O)O)[C@@H](O)[C@H]1O` belongs 155%; to `Nc1ncnc2c1nc(Cl)n2[C@@H]1O[C@H](COP(=O)(O)OP(=O)(O)OP(=O)(O)O)[C@@H](O)[C@H]1O`, 140%.
In the case of `O=P(O)(O)OP(=O)(O)OP(=O)(O)OC[C@H]1O[C@@H](n2cnc3cc(Cl)c(Cl)cc32)[C@H](O)[C@@H]1O`, in the test with Dictyostelium discoideum [2], the Relative activity is 145%.
Take `O=P(O)(O)OP(=O)(O)OP(=O)(O)OC[C@H]1O[C@@H](n2cnc3c(Cl)ncnc32)[C@H](O)[C@@H]1O`: the Relative activity in the test with Dictyostelium discoideum [2] worked out at 110%.
